Assay results: patent US9932340B2, “Substituted indoles” (AbbVie Inc., priority 2014, dated 2018)

What follows are compounds tested against SUV420H1 enzyme (Homo sapiens, UniProt Q4FZB7) (assay: TR-FRET SAH SUV420H1 enzyme inhibition assay). Conditions: Histone Peptide H4(8-30)me1 and SAM, overnight at room temp, TR-FRET detection of SAH, read-out: TR-FRET SAH_SUV420H1 IC50.
Type: biochemical
Method in brief: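 SUV420H1 (90 nM) preincubated 30 min with compound (3-fold dilutions, 50 to 0.00075 μM), then H4(8-30)me1 peptide 5 nM and SAM 4 nM added, overnight at room temp. SAH product detected by TR-FRET with Tb anti-SAH antibody and Oregon Green-SAH in RIPA buffer, 4 h; IC50 from Hill fit, asymptotes fixed 0-100%.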

SUV420H1 enzyme, sequence (Q4FZB7 whole entry): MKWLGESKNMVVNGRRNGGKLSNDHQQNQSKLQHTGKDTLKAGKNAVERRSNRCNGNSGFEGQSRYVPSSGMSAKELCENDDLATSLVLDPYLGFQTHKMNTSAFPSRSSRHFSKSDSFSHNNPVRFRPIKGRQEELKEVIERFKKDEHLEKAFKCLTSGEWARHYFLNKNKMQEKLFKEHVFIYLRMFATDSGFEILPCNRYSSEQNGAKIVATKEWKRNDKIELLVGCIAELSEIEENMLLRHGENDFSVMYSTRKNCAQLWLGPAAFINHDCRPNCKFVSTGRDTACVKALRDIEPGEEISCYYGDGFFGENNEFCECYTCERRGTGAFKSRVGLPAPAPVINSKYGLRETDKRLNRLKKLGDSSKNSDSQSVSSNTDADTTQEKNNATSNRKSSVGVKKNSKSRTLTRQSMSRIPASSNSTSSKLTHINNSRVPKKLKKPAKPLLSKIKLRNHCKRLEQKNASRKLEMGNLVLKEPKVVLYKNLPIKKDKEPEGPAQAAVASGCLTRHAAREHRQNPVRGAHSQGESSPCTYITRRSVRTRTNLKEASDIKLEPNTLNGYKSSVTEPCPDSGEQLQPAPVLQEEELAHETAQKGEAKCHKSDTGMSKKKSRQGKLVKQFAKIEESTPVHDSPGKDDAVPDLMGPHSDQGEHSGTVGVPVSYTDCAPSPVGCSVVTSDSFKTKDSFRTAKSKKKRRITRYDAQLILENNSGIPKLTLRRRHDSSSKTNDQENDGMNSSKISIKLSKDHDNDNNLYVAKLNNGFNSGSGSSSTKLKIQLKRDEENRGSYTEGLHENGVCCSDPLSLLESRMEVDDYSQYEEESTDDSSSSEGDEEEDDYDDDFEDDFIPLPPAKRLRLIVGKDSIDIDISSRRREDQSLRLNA

Row | SMILES | IC50 [nM]
1 | Nc1ncnc2c1ncn2Cc1cc(Cl)cc2cc(CNC(=O)c3nc4[nH]ccc4cc3Cl)[nH]c12 [Example 349, N-({7-[(6-amino-9H-purin-9-yl)methyl]-5-chloro-1H-indol-2-yl}methyl)-5-chloro-1H-pyrrolo[2,3-b]pyridine-6-carboxamide] | 8780
2 | Cc1noc(C)c1C(=O)NCc1cc2cc(-c3ccc(S(C)(=O)=O)cc3)cc(Cn3cnc4c(N)ncnc43)c2[nH]1 [Example 170, N-({7-[(6-amino-9H-purin-9-yl)methyl]-5-[4-(methylsulfonyl)phenyl]-1H-indol-2-yl}methyl)-3,5-dimethyl-1,2-oxazole-4-carboxamide] | 208
3 | Nc1ncnc2c1ncn2Cc1cc(Cl)cc2cc(CNCc3cc(F)ccc3Cl)[nH]c12 [Example 217, 9-[(5-chloro-2-{[(2-chloro-5-fluorobenzyl)amino]methyl}-1H-indol-7-yl)methyl]-9H-purin-6-amine] | 2430
4 | Nc1ncnc2c1ncn2Cc1cc(Cl)cc2cc(CNC(=O)c3ccc4[nH]ncc4c3F)[nH]c12 [Example 350, N-({7-[(6-amino-9H-purin-9-yl)methyl]-5-chloro-1H-indol-2-yl}methyl)-4-fluoro-1H-indazole-5-carboxamide] | 2740
5 | Nc1ncnc2c1ncn2Cc1cc(Cl)cc2cc(CNC(=O)c3cc4[nH]nnc4cc3F)[nH]c12 [Example 334, N-({7-[(6-amino-9H-purin-9-yl)methyl]-5-chloro-1H-indol-2-yl}methyl)-5-fluoro-1H-benzotriazole-6-carboxamide] | 2040
6 | Nc1ncnc2c1ncn2Cc1cc(Cl)cc2cc(CNC(=O)C3CCCC3)[nH]c12 [Example 119, N-({7-[(6-amino-9H-purin-9-yl)methyl]-5-chloro-1H-indol-2-yl}methyl)cyclopentanecarboxamide] | 6410
7 | Nc1ncnc2c1ncn2Cc1cc(Cl)cc2cc(CNCc3c(Cl)cccc3Cl)[nH]c12 [Example 211, 9-[(5-chloro-2-{[(2,6-dichlorobenzyl)amino]methyl}-1H-indol-7-yl)methyl]-9H-purin-6-amine] | 9330
8 | Nc1ncnc2c1ncn2Cc1cc(Cl)cc2cc(CNC(=O)c3cnccn3)[nH]c12 [Example 193, N-({7-[(6-amino-9H-purin-9-yl)methyl]-5-chloro-1H-indol-2-yl}methyl)pyrazine-2-carboxamide] | 20000
9 | Nc1ncnc2c1ncn2Cc1cc(Cl)cc2cc(CNCc3cccc(OCCN4CCCCC4)c3)[nH]c12 [Example 325, 9-({5-chloro-2-[({3-[2-(piperidin-1-yl)ethoxy]benzyl}amino)methyl]-1H-indol-7-yl}methyl)-9H-purin-6-amine] | 3120
10 | Nc1ncnc2c1ncn2Cc1cc(Cl)cc2cc(CNC(=O)[C@H]3CCCN3)[nH]c12 [Example 116, (2R)—N-({7-[(6-amino-9H-purin-9-yl)methyl]-5-chloro-1H-indol-2-yl}methyl)pyrrolidine-2-carboxamide] | 8280
11 | Nc1ncnc2c1ncn2Cc1cc(Cl)cc2cc(CNC(=O)[C@@H]3CCCN3)[nH]c12 [Example 115, (2S)—N-({7-[(6-amino-9H-purin-9-yl)methyl]-5-chloro-1H-indol-2-yl}methyl)pyrrolidine-2-carboxamide] | 3530
12 | Nc1ncnc2c1ncn2Cc1cc(Cl)cc2cc(CNC(=O)CN3CCCC3)[nH]c12 [Example 120, N-({7-[(6-amino-9H-purin-9-yl)methyl]-5-chloro-1H-indol-2-yl}methyl)-2-(pyrrolidin-1-yl)acetamide] | 1490
13 | Cc1noc(C)c1C(=O)NCc1cc2cc(-c3ccc(NS(C)(=O)=O)cc3)cc(Cn3cnc4c(N)ncnc43)c2[nH]1 [Example 174, N-[(7-[(6-amino-9H-purin-9-yl)methyl]-5-{4-[(methylsulfonyl)amino]phenyl}-1H-indol-2-yl)methyl]-3,5-dimethyl-1,2-oxazole-4-carboxamide] | 101
14 | CC1CCCCC1C(=O)NCc1cc2cc(Cl)cc(Cn3cnc4c(N)ncnc43)c2[nH]1 (centres unmarked) [Example 132, N-({7-[(6-amino-9H-purin-9-yl)methyl]-5-chloro-1H-indol-2-yl}methyl)-2-methylcyclohexanecarboxamide] | 6250
15 | C=C(C)c1ccc(Cn2cnc3c(N)ncnc32)c2[nH]c(CN)cc12 [Example 65, 9-{[2-(aminomethyl)-4-(prop-1-en-2-yl)-1H-indol-7-yl]methyl}-9H-purin-6-amine] | 5080
16 | Cc1ccsc1C(=O)NCc1cc2cc(Cl)cc(Cn3cnc4c(N)ncnc43)c2[nH]1 [Example 157, N-({7-[(6-amino-9H-purin-9-yl)methyl]-5-chloro-1H-indol-2-yl}methyl)-3-methylthiophene-2-carboxamide] | 2060
17 | Nc1ncnc2c1ncn2Cc1cc(Cl)cc2cc(CNC(=O)C34CC5CC(CC(C5)C3)C4)[nH]c12 [Example 136, N-({7-[(6-amino-9H-purin-9-yl)methyl]-5-chloro-1H-indol-2-yl}methyl)tricyclo[3.3.1.1^3,7]decane-1-carboxamide] | 10500
18 | Nc1ncnc2c1ncn2Cc1cc(Cl)cc2cc(CNCc3cccc(CN4CCCCC4)c3)[nH]c12 [Example 323, 9-{[5-chloro-2-({[3-(piperidin-1-ylmethyl)benzyl]amino}methyl)-1H-indol-7-yl]methyl}-9H-purin-6-amine] | 345
19 | Cn1nccc1C(=O)NCc1cc2cc(Cl)cc(Cn3cnc4c(N)ncnc43)c2[nH]1 [Example 152, N-({7-[(6-amino-9H-purin-9-yl)methyl]-5-chloro-1H-indol-2-yl}methyl)-1-methyl-1H-pyrazole-5-carboxamide] | 1080
20 | COCCC(=O)NCc1cc2cc(Cl)cc(Cn3cnc4c(N)ncnc43)c2[nH]1 [Example 100, N-({7-[(6-amino-9H-purin-9-yl)methyl]-5-chloro-1H-indol-2-yl}methyl)-3-methoxypropanamide] | 10900
21 | Cc1nc2cc(C(=O)NCc3cc4cc(Cl)cc(Cn5cnc6c(N)ncnc65)c4[nH]3)ccc2n1C [Example 367, N-({7-[(6-amino-9H-purin-9-yl)methyl]-5-chloro-1H-indol-2-yl}methyl)-1,2-dimethyl-1H-benzimidazole-5-carboxamide] | 591
22 | CC1CCC(C(=O)NCc2cc3cc(Cl)cc(Cn4cnc5c(N)ncnc54)c3[nH]2)CC1 (centres unmarked) [Example 130, N-({7-[(6-amino-9H-purin-9-yl)methyl]-5-chloro-1H-indol-2-yl}methyl)-4-methylcyclohexanecarboxamide] | 2390

More lines, now with the values ahead:

Row | IC50 [nM] | SMILES
23 | 8250 | Nc1ncnc2c1ncn2Cc1cc(Cl)cc2cc(CNC(=O)c3ccc(F)cc3)[nH]c12 [Example 223, N-({7-[(6-amino-9H-purin-9-yl)methyl]-5-chloro-1H-indol-2-yl}methyl)-4-fluorobenzamide]
24 | 7610 | CCc1nc2ccc(C(=O)NCc3cc4cc(Cl)cc(Cn5cnc6c(N)ncnc65)c4[nH]3)cc2[nH]1 [Example 368, N-({7-[(6-amino-9H-purin-9-yl)methyl]-5-chloro-1H-indol-2-yl}methyl)-2-ethyl-1H-benzimidazole-6-carboxamide]
25 | 493 | Nc1ncnc2c1ncn2Cc1cc(Cl)cc2cc(CNC(=O)c3ccccc3C(F)(F)F)[nH]c12 [Example 257, N-({7-[(6-amino-9H-purin-9-yl)methyl]-5-chloro-1H-indol-2-yl}methyl)-2-(trifluoromethyl)benzamide]
26 | 98.5 | Nc1ncnc2c1ncn2Cc1cc(Cl)cc2cc(CNC(=O)c3cnc4ccsc4c3)[nH]c12 [Example 337, N-({7-[(6-amino-9H-purin-9-yl)methyl]-5-chloro-1H-indol-2-yl}methyl)thieno[3,2-b]pyridine-6-carboxamide]
27 | 5600 | N#Cc1ccccc1CNCc1cc2cc(Cl)cc(Cn3cnc4c(N)ncnc43)c2[nH]1 [Example 269, 2-{[({7-[(6-amino-9H-purin-9-yl)methyl]-5-chloro-1H-indol-2-yl}methyl)amino]methyl}benzonitrile]
28 | 2400 | Nc1ncnc2c1ncn2Cc1cc(Cl)cc2cc(CNC(=O)c3ccsc3)[nH]c12 [Example 145, N-({7-[(6-amino-9H-purin-9-yl)methyl]-5-chloro-1H-indol-2-yl}methyl)thiophene-3-carboxamide]
29 | 1180 | CN1CCN(Cc2ccc(-c3cc(Cn4cnc5c(N)ncnc54)c4[nH]c(CN)cc4c3)cc2)CC1 [Example 54, 9-{[2-(aminomethyl)-5-{4-[(4-methylpiperazin-1-yl)methyl]phenyl}-1H-indol-7-yl]methyl}-9H-purin-6-amine]
30 | 425 | NCc1cc2cc(-c3cccc(C(N)=O)c3)cc(Cn3cnc4c(N)ncnc43)c2[nH]1 [Example 40, 3-{2-(aminomethyl)-7-[(6-amino-9H-purin-9-yl)methyl]-1H-indol-5-yl}benzamide]
31 | 244 | NCc1cc2cc(-c3cccc(N4CCOCC4)c3)cc(Cn3cnc4c(N)ncnc43)c2[nH]1 [Example 52, 9-({2-(aminomethyl)-5-[3-(morpholin-4-yl)phenyl]-1H-indol-7-yl}methyl)-9H-purin-6-amine]
32 | 4870 | Nc1ncnc2c1ncn2Cc1cc(Cl)cc2cc(CNC(=O)c3ccc4occc4c3)[nH]c12 [Example 355, N-({7-[(6-amino-9H-purin-9-yl)methyl]-5-chloro-1H-indol-2-yl}methyl)-1-benzofuran-5-carboxamide]
33 | 1090 | COc1cccc(-c2cc(Cn3cnc4c(N)ncnc43)c3[nH]c(CN)cc3c2)c1 [Example 35, 9-{[2-(aminomethyl)-5-(3-methoxyphenyl)-1H-indol-7-yl]methyl}-9H-purin-6-amine]
34 | 7920 | Cc1sccc1C(=O)NCc1cc2cc(Cl)cc(Cn3cnc4c(N)ncnc43)c2[nH]1 [Example 156, N-({7-[(6-amino-9H-purin-9-yl)methyl]-5-chloro-1H-indol-2-yl}methyl)-2-methylthiophene-3-carboxamide]
35 | > 50000 | Nc1ncnc2c1ncn2Cc1cc(Cl)cc2cc(CNC(=O)Cc3ccc(Cl)cc3)[nH]c12 [Example 251, N-({7-[(6-amino-9H-purin-9-yl)methyl]-5-chloro-1H-indol-2-yl}methyl)-2-(4-chlorophenyl)acetamide]
